Results from paper PMC8151276, “An Integrated Approach toward NanoBRET Tracers for Analysis of GPCR Ligand Engagement” (Molecules, 2021).

Key:
Type in all cases: binding
[1] = target: T1, FZD7 (Homo sapiens, UniProt O75084); assay: NanoBRET screen HiBiT-FZD7 in HEK293
T1 construct: purchased Promega (in-house HiBiT-GPCR construct library, NanoBRET)
Protocol: (§1) Each tracer candidate was screened across the entire library of HiBiT-GPCR constructs using NanoBRET as the detection modality. As depicted in Figure 4A, the specificity of interactions was evaluated through decrease in BRET due to competitive displacement of a bound tracer by excess parental compound. Each tracer was analyzed for binding to each HiBiT-GPCR fusion in the absence and in the presence of competing parental compound. Briefly, HEK293 cells were transfected with HiBiT-GPCR constructs diluted into promoterless DNA to reduce expression and maximize translocation to the cell surface. Each tracer candidate was then screened at concentrations of 1 μM and 0.1 μM across cells expressing these fusions. Cells were treated for 1.5 h with tracer either alone or in the presence of 20 μM competing parental compound (i.e., control). BRET was measured upon addition of purified LgBiT and subsequent complementation with HiBiT genetically fused to a GPCR. The specificity of interactions was assessed through a decrease in BRET signal due to competitive displacement of the bound tracer. To further gauge the robustness of these interactions, the fold response over the control (i.e., BRETtracer/BRETcontrol) was calculated. We chose a 1.5-fold response, which translates to ≥7-fold signal over noise as the minimal threshold required to score an interaction as positive. […]. Below we highlight the screening results obtained for our exemplary fluorescent tracers based on Clozapine, Amitriptyline and AZD1283.
(§2) HiBiT-GPCR DNA constructs were diluted in 10 mM Tris pH 8 to a final concentration of 0.01 μg/μL, arrayed in 96-well plates and stored at −20 °C. For transfection, HEK293 cells were suspended in Opti-MEM (without phenol red) supplemented with 2% fetal bovine serum (Seradigm) and 100 units/mL penicillin–streptomycin (Gibco) at a final concentration of 220,000 cells/mL and dispensed into white 96-well plates at 90 μL/well. Subsequent transfections and screens were carried using an Agilent Bravo Automated Liquid Handling Platform. First, the 96-well HiBiT DNA arrays were diluted 25-fold in Opti-MEM (without serum or phenol red) to a final concentration of 0.0004 μg/μL and 20 μL of the diluted DNAs were transferred into new 96-well plates. Next, promoterless carrier DNA (1 μg/μL) was diluted 25-fold (0.04 μg/μL) and then dispensed into the diluted arrays at 20 μL/well. Following brief mixing, Viafect transfection reagent (Promega) diluted 16-fold into Opti-MEM was dispensed into the plates at 40 μL/well. After mixing by pipetting, plates were incubated for 10 min on the pipetting station deck. The DNA-transfection reagent complexes were then added to plates containing cells. To facilitate the screen, 10 μL of DNA-transfection reagent complexes were added in duplicates to the top 4 and bottom 4 rows, resulting in two identical 48-well arrays per plate. Plates with transfected cells were incubated for 18–20 h at 37 °C/5% CO2. A screen of each tracer across the entire library using two different concentrations requires duplicate plates of transfected cells. Depending on the number of tracers being screened, transfections can be scaled up using the same ratios. The next day, for each tracer, four 20× screening solutions in tracer dilution buffer (Promega) were prepared: two duplicates at final concentration of 20 μM and two duplicates at a final concentration of 2 μM. A competing unmodified compound was added to one of each duplicate at a final concentration of 400 μM. The four resulting solutions were diluted 4-fold in Opti-MEM without serum or phenol red to generate 5× solutions (5 µM and 0.5 µM tracer +/− 100 μM competing compound). To screen the library, a BioTek MultiFlo FX liquid dispenser was used to dispense 22.5 µL of tracer solution to the top 4 rows and 22.5 µL tracer + competing compound solution to the 4 bottom rows. Plates were briefly mixed on an orbital shaker and incubated for 1.5 h at room temperature. […]

[2] = target: T2, FPR1 (Homo sapiens, UniProt P21462); assay: NanoBRET screen HiBiT-FPR1 in HEK293
T2 construct: purchased Promega (in-house HiBiT-GPCR construct library, NanoBRET)
T2 sequence (P21462 1-350): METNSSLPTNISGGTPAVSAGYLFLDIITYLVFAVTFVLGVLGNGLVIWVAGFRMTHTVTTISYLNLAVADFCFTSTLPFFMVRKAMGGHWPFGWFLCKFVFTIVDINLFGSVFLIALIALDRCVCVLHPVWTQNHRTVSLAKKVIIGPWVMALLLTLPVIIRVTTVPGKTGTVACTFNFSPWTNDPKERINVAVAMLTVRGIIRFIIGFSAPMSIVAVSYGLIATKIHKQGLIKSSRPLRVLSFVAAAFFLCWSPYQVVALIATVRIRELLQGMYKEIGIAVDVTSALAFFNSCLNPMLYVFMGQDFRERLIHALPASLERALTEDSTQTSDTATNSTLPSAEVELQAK
Protocol: as §1, §2

[3] = target: T3, ADORA3 (Homo sapiens, UniProt P0DMS8); assay: NanoBRET screen HiBiT-ADORA3 in HEK293
T3 construct: purchased Promega (in-house HiBiT-GPCR construct library, NanoBRET)
T3 sequence (P0DMS8 1-318): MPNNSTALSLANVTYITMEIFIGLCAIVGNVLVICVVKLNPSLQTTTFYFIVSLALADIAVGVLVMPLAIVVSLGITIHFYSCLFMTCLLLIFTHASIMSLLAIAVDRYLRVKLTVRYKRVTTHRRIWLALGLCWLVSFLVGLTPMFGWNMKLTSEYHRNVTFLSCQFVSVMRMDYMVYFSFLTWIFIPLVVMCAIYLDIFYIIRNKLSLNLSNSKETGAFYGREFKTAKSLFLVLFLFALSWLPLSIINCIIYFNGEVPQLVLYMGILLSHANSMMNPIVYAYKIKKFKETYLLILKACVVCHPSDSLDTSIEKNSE
Protocol: as §1, §2

[4] = target: T4, P2RY6 (Homo sapiens, UniProt Q15077); assay: NanoBRET screen HiBiT-P2RY6 in HEK293
T4 construct: purchased Promega (in-house HiBiT-GPCR construct library, NanoBRET)
Protocol: as §1, §2

[5] = target: T5, FZD5 (Homo sapiens, UniProt Q13467); assay: NanoBRET screen HiBiT-FZD5 in HEK293
T5 construct: purchased Promega (in-house HiBiT-GPCR construct library, NanoBRET)
Protocol: as §1, §2

[6] = target: T6, OPRK1 (Homo sapiens, UniProt P41145); assay: NanoBRET screen HiBiT-OPRK1 in HEK293
T6 construct: purchased Promega (in-house HiBiT-GPCR construct library, NanoBRET)
Protocol: as §1, §2

[7] = tracer at 0.1μM, listed as amitriptyline-b-2-NB590
[8] = tracer at 1μM, listed as amitriptyline-b-2-NB590

T4 sequence (Q15077 whole entry): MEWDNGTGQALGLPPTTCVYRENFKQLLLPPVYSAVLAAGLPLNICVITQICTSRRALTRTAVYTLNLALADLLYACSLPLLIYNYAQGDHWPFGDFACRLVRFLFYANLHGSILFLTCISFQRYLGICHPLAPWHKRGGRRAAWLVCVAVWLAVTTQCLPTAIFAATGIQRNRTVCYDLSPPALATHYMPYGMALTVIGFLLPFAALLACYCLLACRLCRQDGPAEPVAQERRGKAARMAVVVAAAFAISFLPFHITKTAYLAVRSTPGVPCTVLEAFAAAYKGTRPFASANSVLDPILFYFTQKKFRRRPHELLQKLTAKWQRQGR
T6 sequence (P41145 whole entry): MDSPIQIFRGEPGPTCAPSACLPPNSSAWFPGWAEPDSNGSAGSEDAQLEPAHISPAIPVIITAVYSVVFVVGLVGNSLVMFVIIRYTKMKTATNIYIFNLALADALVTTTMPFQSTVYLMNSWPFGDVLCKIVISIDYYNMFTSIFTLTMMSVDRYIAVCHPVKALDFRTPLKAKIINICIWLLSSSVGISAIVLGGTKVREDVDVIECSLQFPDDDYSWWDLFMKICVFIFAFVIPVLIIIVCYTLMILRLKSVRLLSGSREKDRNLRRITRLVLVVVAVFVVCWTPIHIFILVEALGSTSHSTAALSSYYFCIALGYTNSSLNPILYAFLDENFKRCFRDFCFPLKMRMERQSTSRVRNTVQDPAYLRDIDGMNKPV
T5 sequence (Q13467 27-585): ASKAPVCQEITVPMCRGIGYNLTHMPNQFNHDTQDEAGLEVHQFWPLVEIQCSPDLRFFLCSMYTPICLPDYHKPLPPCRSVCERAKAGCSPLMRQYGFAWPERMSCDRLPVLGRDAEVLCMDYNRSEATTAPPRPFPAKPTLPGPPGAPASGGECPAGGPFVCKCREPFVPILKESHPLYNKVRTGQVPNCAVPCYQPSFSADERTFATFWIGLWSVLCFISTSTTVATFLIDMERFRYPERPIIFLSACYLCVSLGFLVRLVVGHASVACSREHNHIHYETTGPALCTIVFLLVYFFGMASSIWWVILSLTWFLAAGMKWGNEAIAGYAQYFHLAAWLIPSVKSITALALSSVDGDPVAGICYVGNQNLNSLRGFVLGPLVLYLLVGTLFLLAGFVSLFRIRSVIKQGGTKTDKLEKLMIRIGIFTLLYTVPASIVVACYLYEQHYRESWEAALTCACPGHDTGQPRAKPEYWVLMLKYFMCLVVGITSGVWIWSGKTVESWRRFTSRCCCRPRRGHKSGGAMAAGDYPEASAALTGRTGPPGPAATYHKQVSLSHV

For `CN1CCN(C2=Nc3cc(Cl)ccc3Nc3ccc(CNC(=O)CCOCCOCCOCCOCCNC(=O)CCc4ccc5n4[B-](F)(F)[N+]4=C(c6ccc[nH]6)C=CC4=C5)cc32)CC1` [Clozapine-b-2-NB590], the “NanoBRET Fold Response” value ([1]; FZD7, 0.1μM tracer) was 1.01, the “NanoBRET Fold Response” value ([1]; FZD7, 1μM tracer) was 0.98 and the “NanoBRET Fold Response” value ([2]; FPR1, 0.1μM tracer) was 0.98. The “NanoBRET Fold Response” value ([2]; FPR1, 1μM tracer) was 1.00, the “NanoBRET Fold Response” value ([3]; ADORA3, 0.1μM tracer) was 1.02 and the “NanoBRET Fold Response” value ([3]; ADORA3, 1μM tracer) was 1.08. The “NanoBRET Fold Response” value ([4]; P2RY6, 0.1μM tracer) was 1.04, the “NanoBRET Fold Response” value ([4]; P2RY6, 1μM tracer) was 0.98 and the “NanoBRET Fold Response” value ([5]; FZD5, 0.1μM tracer) was 1.00. The “NanoBRET Fold Response” value ([5]; FZD5, 1μM tracer) was 1.04, the “NanoBRET Fold Response” value ([6]; OPRK1, 0.1μM tracer) was 0.99 and the “NanoBRET Fold Response” value ([6]; OPRK1, 1μM tracer) was 0.96.

With `CN(C)CCC=C1c2ccccc2CCc2ccc(C(=O)NCCNC(=O)CCOCCOCCOCCOCCNC(=O)CCc3ccc4n3[B-](F)(F)[N+]3=C(c5ccc[nH]5)C=CC3=C4)cc21` [Amitriptyline-b-2-NB590] the “NanoBRET Fold Response” value [1, 7] was 1.16, the “NanoBRET Fold Response” value [1, 8] was 1.16 and the “NanoBRET Fold Response” value ([2]; tracer at 0.1μM) was 0.96. The “NanoBRET Fold Response” value [2, 8] was 1.02, the “NanoBRET Fold Response” value [3, 7] was 0.87 and the “NanoBRET Fold Response” value [3, 8] was 0.66. The “NanoBRET Fold Response” value [4, 7] was 1.04, the “NanoBRET Fold Response” value [4, 8] was 0.95 and the “NanoBRET Fold Response” value ([5]; tracer at 0.1μM) was 0.97. The “NanoBRET Fold Response” value [5, 8] was 0.99, the “NanoBRET Fold Response” value [6, 7] was 1.23 and the “NanoBRET Fold Response” value [6, 8] was 1.23.

With `CCOC(=O)c1cc(C#N)c(N2CCC(C(=O)NS(=O)(=O)Cc3ccccc3/C=C/C(=O)NCCNC(=O)CCc3ccc4n3[B-](F)(F)[N+]3=C(c5ccc[nH]5)C=CC3=C4)CC2)nc1C` [AZD1283-1-NB590] the “NanoBRET Fold Response” value ([1]; FZD7, 0.1μM) was 1.03, the “NanoBRET Fold Response” value ([1]; FZD7, 1μM) was 1.04 and the “NanoBRET Fold Response” value ([2]; FPR1, 0.1μM) was 1.09. For the same compound, the “NanoBRET Fold Response” value ([2]; FPR1, 1μM) was 1.05, the “NanoBRET Fold Response” value ([3]; ADORA3, 0.1μM) was 1.11 and the “NanoBRET Fold Response” value ([3]; ADORA3, 1μM) was 1.09. The “NanoBRET Fold Response” value ([4]; P2RY6, 0.1μM) was 1.18, the “NanoBRET Fold Response” value ([4]; P2RY6, 1μM) was 1.04 and the “NanoBRET Fold Response” value ([5]; FZD5, 0.1μM) was 1.07. For the same compound, the “NanoBRET Fold Response” value ([5]; FZD5, 1μM) was 1.05, the “NanoBRET Fold Response” value ([6]; OPRK1, 0.1μM) was 0.98 and the “NanoBRET Fold Response” value ([6]; OPRK1, 1μM) was 0.99.

`CC(C)N(CC[C@H](c1ccccc1)c1cc(CCNC(=O)CCOCCOCCOCCOCCNC(=O)CCc2ccc3n2[B-](F)(F)[N+]2=C(c4ccc[nH]4)C=CC2=C3)ccc1O)C(C)C` [Tolterodine-2-NB590] was tested, and the “NanoBRET Fold Response” value ([1]; FZD7, tracer 0.1μM) was 1.00, the “NanoBRET Fold Response” value ([1]; FZD7, tracer 1μM) was 1.12 and the “NanoBRET Fold Response” value ([2]; FPR1, tracer 0.1μM) was 1.07. The “NanoBRET Fold Response” value ([2]; FPR1, tracer 1μM) was 0.85, the “NanoBRET Fold Response” value ([3]; ADORA3, tracer 0.1μM) was 1.12 and the “NanoBRET Fold Response” value ([3]; ADORA3, tracer 1μM) was 1.00. For the same compound, the “NanoBRET Fold Response” value ([4]; P2RY6, tracer 0.1μM) was 1.06, the “NanoBRET Fold Response” value ([4]; P2RY6, tracer 1μM) was 0.98 and the “NanoBRET Fold Response” value ([5]; FZD5, tracer 0.1μM) was 0.87. For the same compound, the “NanoBRET Fold Response” value ([5]; FZD5, tracer 1μM) was 1.07, the “NanoBRET Fold Response” value ([6]; OPRK1, tracer 0.1μM) was 1.12 and the “NanoBRET Fold Response” value ([6]; OPRK1, tracer 1μM) was 0.95.
